# Experimental data reported in patent publication US20260242419A1, “A CYCLIC PEPTIDE FOR TRAPPING INTERLEUKIN-1 BETA” (Merck Sharp & Dohme LLC, priority 2023, published 2026).
# pIC50: −log10 of the molar value. Starred links: 1 amine or outer side, 2 acyl side, 3 side chain; linkers in the order of their positions; H or OH if unused. Non-standard residues stand in square brackets, D forms with d. Residues, ends and D or L forms follow the SMILES beside them. Trp(4-Cl)(βS-Me) = C[C@@H](c1c[nH]c2cccc(Cl)c12)[C@H](N)C(=O)O; dPro(3S-(4-Br-benzyl)) = O=C(O)[C@@H]1NCC[C@@H]1Cc1ccc(Br)cc1; Trp(βS-Me,4-F) = C[C@@H](c1c[nH]c2cccc(F)c12)[C@H](N)C(=O)O; Bip(4'-COOH) = N[C@@H](Cc1ccc(-c2ccc(C(=O)O)cc2)cc1)C(=O)O; Ala(1-bicyclo(1.1.1)pentyl) = N[C@@H](CC12CC(C1)C2)C(=O)O; dPro(4R-Bzl(4-F)) = O=C(O)[C@H]1C[C@@H](Cc2ccc(F)cc2)CN1; X19 = O=C([C@H]1C[C@@H](Cc2ccc(Br)cc2)CN1[*:1])[*:2]; 1Nal(3S-Me) = C[C@@H](c1cccc2ccccc12)[C@H](N)C(=O)O; Ala(pyrimidin-5-yl) = N[C@@H](Cc1cncnc1)C(=O)O; Phe(4-COOH) = N[C@@H](Cc1ccc(C(=O)O)cc1)C(=O)O; dαMeDab = C[C@](CCN[*:3])(N[*:1])C(=O)[*:2]; Pro(cis-4-F) = O=C(O)[C@@H]1C[C@H](F)CN1; Ala(4-THP) = N[C@@H](CC1CCOCC1)C(=O)O; d(αMeK) = C[C@@](N)(CCCCN)C(=O)O; 4Pal = N[C@@H](Cc1ccncc1)C(=O)O; αMeD = C[C@](N)(CC(=O)O)C(=O)O; αMeK = C[C@](N)(CCCCN)C(=O)O; hSer = N[C@@H](CCO)C(=O)O; Orn = NCCC[C@H](N)C(=O)O; Dab = NCC[C@H](N)C(=O)O; Dap = NC[C@H](N)C(=O)O; Aib = CC(C)(N)C(=O)O
# Target: T1, IL-1β (Homo sapiens, UniProt P01584)
# T1 construct: purchased BioLegend 579404
# Assay: IL-6 assay in MRC5 cells: inhibition of IL-1β induced IL-6 secretion (AlphaLISA)
# Assay type: cell-based
# Details: inhibition of IL-1β induced IL-6 secretion in MRC5 cells; read-out: MRC5 IC50
# Method in brief: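 Compound was pre-incubated 1 h at ambient temperature with recombinant human IL-1β at 2λ EC80 before adding human lung fibroblast MRC5 cells (3000/well) in EMEM with 0.025% BSA. After overnight culture at 37 °C, 5% CO2, secreted IL-6 in conditioned medium was measured by AlphaLISA; IC50 from 4-parameter logistic fits.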
# T1 sequence (P01584 117-269): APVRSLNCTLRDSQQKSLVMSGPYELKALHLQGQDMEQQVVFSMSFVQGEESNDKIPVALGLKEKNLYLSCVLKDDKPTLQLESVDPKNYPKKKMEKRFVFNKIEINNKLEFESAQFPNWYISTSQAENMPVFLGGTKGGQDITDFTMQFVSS
row,Compound,pIC50
1,C[C@@H](c1cccc2ccccc12)[C@@H]1NC(=O)[C@@H]2C[C@H](F)CN2C(=O)CNC(=O)[C@H](Cc2ccc(C(=O)O)cc2)NC(=O)[C@H](Cc2ccncc2)NC(=O)[C@H](Cc2ccc(-c3ccc(C(=O)O)cc3)cc2)NC(=O)[C@H]2C[C@@H](Cc3ccc(F)cc3)CN2C(=O)CNC(=O)[C@H](CCN)NC(=O)[C@H](CCC(N)=O)NC(=O)[C@H](Cc2cncnc2)NC(=O)C(C)(C)NC(=O)[C@H](Cc2c[nH]c3ccccc23)NC(=O)[C@H](CO)NC(=O)C(C)(C)NC1=O [Example 140] (cyclo([Bip(4'-COOH)][4Pal][Phe(4-COOH)]G[Pro(cis-4-F)][1Nal(3S-Me)][Aib]SW[Aib][Ala(pyrimidin-5-yl)]Q[Dab]G[dPro(4R-Bzl(4-F))])),10.48
2,"C[C@@H](c1c[nH]c2cccc(F)c12)[C@@H]1NC(=O)[C@@H]2C[C@H](F)CN2C(=O)CNC(=O)[C@H](Cc2ccc(C(=O)O)cc2)NC(=O)[C@H](Cc2ccncc2)NC(=O)[C@H](Cc2ccc(-c3ccc(C(=O)O)cc3)cc2)NC(=O)[C@H]2C[C@@H](Cc3ccc(F)cc3)CN2C(=O)CNC(=O)[C@H](CCN)NC(=O)[C@H](CCC(N)=O)NC(=O)[C@H](Cc2cncnc2)NC(=O)[C@](C)(CC(=O)O)NC(=O)[C@H](Cc2c[nH]c3ccccc23)NC(=O)[C@H](CO)NC(=O)C(C)(C)NC1=O [Example 141] (cyclo([Bip(4'-COOH)][4Pal][Phe(4-COOH)]G[Pro(cis-4-F)][Trp(βS-Me,4-F)][Aib]SW[αMeD][Ala(pyrimidin-5-yl)]Q[Dab]G[dPro(4R-Bzl(4-F))]))",10.96
3,"C[C@@H](c1c[nH]c2cccc(F)c12)[C@@H]1NC(=O)[C@@H]2C[C@H](F)CN2C(=O)CNC(=O)[C@H](Cc2ccc(C(=O)O)cc2)NC(=O)[C@H](Cc2ccncc2)NC(=O)[C@H](Cc2ccc(-c3ccc(C(=O)O)cc3)cc2)NC(=O)[C@H]2C[C@@H](Cc3ccc(F)cc3)CN2C(=O)CNC(=O)[C@H](CCN)NC(=O)[C@H](CCC(N)=O)NC(=O)[C@H](Cc2cncnc2)NC(=O)[C@@](C)(CCN)NC(=O)[C@H](Cc2c[nH]c3ccccc23)NC(=O)[C@H](CO)NC(=O)C(C)(C)NC1=O [Example 142] (cyclo([Bip(4'-COOH)][4Pal][Phe(4-COOH)]G[Pro(cis-4-F)][Trp(βS-Me,4-F)][Aib]SW[dαMeDab][Ala(pyrimidin-5-yl)]Q[Dab]G[dPro(4R-Bzl(4-F))]))",10.72
4,"C[C@@H](c1c[nH]c2cccc(F)c12)[C@@H]1NC(=O)[C@@H]2C[C@H](F)CN2C(=O)CNC(=O)[C@H](Cc2ccc(C(=O)O)cc2)NC(=O)[C@H](Cc2ccncc2)NC(=O)[C@H](Cc2ccc(-c3ccc(C(=O)O)cc3)cc2)NC(=O)[C@H]2C[C@@H](Cc3ccc(Br)cc3)CN2C(=O)CNC(=O)[C@H](CCN)NC(=O)[C@H](CCC(N)=O)NC(=O)[C@H](Cc2cncnc2)NC(=O)C(C)(C)NC(=O)[C@H](Cc2c[nH]c3ccccc23)NC(=O)[C@H](CCC(=O)O)NC(=O)C(C)(C)NC1=O [Example 143] (cyclo([Bip(4'-COOH)][4Pal][Phe(4-COOH)]G[Pro(cis-4-F)][Trp(βS-Me,4-F)][Aib]EW[Aib][Ala(pyrimidin-5-yl)]Q[Dab]G[X19]))",10.59
5,"C[C@@H](c1c[nH]c2cccc(F)c12)[C@@H]1NC(=O)[C@@H]2C[C@H](F)CN2C(=O)CNC(=O)[C@H](Cc2ccc(C(=O)O)cc2)NC(=O)[C@H](CC23CC(C2)C3)NC(=O)[C@H](Cc2ccc(-c3ccc(C(=O)O)cc3)cc2)NC(=O)[C@H]2C[C@@H](Cc3ccc(F)cc3)CN2C(=O)CNC(=O)[C@H](CCN)NC(=O)[C@H](CCC(N)=O)NC(=O)[C@H](Cc2cncnc2)NC(=O)[C@](C)(CCCCN)NC(=O)[C@H](Cc2c[nH]c3ccccc23)NC(=O)[C@H](CO)NC(=O)C(C)(C)NC1=O [Example 144] (cyclo([Bip(4'-COOH)][Ala(1-bicyclo(1.1.1)pentyl)][Phe(4-COOH)]G[Pro(cis-4-F)][Trp(βS-Me,4-F)][Aib]SW[αMeK][Ala(pyrimidin-5-yl)]Q[Dab]G[dPro(4R-Bzl(4-F))]))",10.51
6,"C[C@@H](c1c[nH]c2cccc(F)c12)[C@@H]1NC(=O)[C@@H]2C[C@H](F)CN2C(=O)CNC(=O)[C@H](Cc2ccc(C(=O)O)cc2)NC(=O)[C@H](CC23CC(C2)C3)NC(=O)[C@H](Cc2ccc(-c3ccc(C(=O)O)cc3)cc2)NC(=O)[C@H]2C[C@@H](Cc3ccc(F)cc3)CN2C(=O)CNC(=O)[C@H](CCN)NC(=O)[C@H](CCC(N)=O)NC(=O)[C@H](Cc2cncnc2)NC(=O)[C@@](C)(CCCCN)NC(=O)[C@H](Cc2c[nH]c3ccccc23)NC(=O)[C@H](CO)NC(=O)C(C)(C)NC1=O [Example 145] (cyclo([Bip(4'-COOH)][Ala(1-bicyclo(1.1.1)pentyl)][Phe(4-COOH)]G[Pro(cis-4-F)][Trp(βS-Me,4-F)][Aib]SW[d(αMeK)][Ala(pyrimidin-5-yl)]Q[Dab]G[dPro(4R-Bzl(4-F))]))",10.39
7,"C[C@@H](c1c[nH]c2cccc(F)c12)[C@@H]1NC(=O)[C@@H]2C[C@H](F)CN2C(=O)CNC(=O)[C@H](Cc2ccc(C(=O)O)cc2)NC(=O)[C@H](CC23CC(C2)C3)NC(=O)[C@H](Cc2ccc(-c3ccc(C(=O)O)cc3)cc2)NC(=O)[C@H]2C[C@@H](Cc3ccc(F)cc3)CN2C(=O)CNC(=O)[C@H](CCN)NC(=O)[C@H](CCC(N)=O)NC(=O)[C@H](CC2CCOCC2)NC(=O)[C@](C)(CCCCN)NC(=O)[C@H](Cc2c[nH]c3ccccc23)NC(=O)[C@H](CO)NC(=O)C(C)(C)NC1=O [Example 146] (cyclo([Bip(4'-COOH)][Ala(1-bicyclo(1.1.1)pentyl)][Phe(4-COOH)]G[Pro(cis-4-F)][Trp(βS-Me,4-F)][Aib]SW[αMeK][Ala(4-THP)]Q[Dab]G[dPro(4R-Bzl(4-F))]))",10.47
8,"C[C@@H](c1c[nH]c2cccc(F)c12)[C@@H]1NC(=O)[C@@H]2C[C@H](F)CN2C(=O)CNC(=O)[C@H](Cc2ccc(C(=O)O)cc2)NC(=O)[C@H](CC23CC(C2)C3)NC(=O)[C@H](Cc2ccc(-c3ccc(C(=O)O)cc3)cc2)NC(=O)[C@H]2C[C@@H](Cc3ccc(F)cc3)CN2C(=O)CNC(=O)[C@H](CCN)NC(=O)[C@H](CCC(N)=O)NC(=O)[C@H](Cc2cncnc2)NC(=O)[C@](C)(CCCCN)NC(=O)[C@H](Cc2c[nH]c3ccccc23)NC(=O)[C@H](CCO)NC(=O)C(C)(C)NC1=O [Example 147] (cyclo([Bip(4'-COOH)][Ala(1-bicyclo(1.1.1)pentyl)][Phe(4-COOH)]G[Pro(cis-4-F)][Trp(βS-Me,4-F)][Aib][hSer]W[αMeK][Ala(pyrimidin-5-yl)]Q[Dab]G[dPro(4R-Bzl(4-F))]))",10.35
9,C[C@@H](c1c[nH]c2cccc(Cl)c12)[C@@H]1NC(=O)[C@@H]2C[C@H](F)CN2C(=O)CNC(=O)[C@H](Cc2ccc(C(=O)O)cc2)NC(=O)[C@H](Cc2ccncc2)NC(=O)[C@H](Cc2ccc(-c3ccc(C(=O)O)cc3)cc2)NC(=O)[C@H]2C[C@@H](Cc3ccc(F)cc3)CN2C(=O)CNC(=O)[C@H](CCN)NC(=O)[C@H](CCC(N)=O)NC(=O)[C@H](Cc2cncnc2)NC(=O)C(C)(C)NC(=O)[C@H](Cc2c[nH]c3ccccc23)NC(=O)[C@H](CCC(=O)O)NC(=O)C(C)(C)NC1=O [Example 148] (cyclo([Bip(4'-COOH)][4Pal][Phe(4-COOH)]G[Pro(cis-4-F)][Trp(4-Cl)(βS-Me)][Aib]EW[Aib][Ala(pyrimidin-5-yl)]Q[Dab]G[dPro(4R-Bzl(4-F))])),10.49
10,C[C@@H](c1cccc2ccccc12)[C@@H]1NC(=O)[C@@H]2C[C@H](F)CN2C(=O)CNC(=O)[C@H](Cc2ccc(C(=O)O)cc2)NC(=O)[C@H](Cc2ccncc2)NC(=O)[C@H](Cc2ccc(-c3ccc(C(=O)O)cc3)cc2)NC(=O)[C@H]2C[C@@H](Cc3ccc(F)cc3)CN2C(=O)CNC(=O)[C@H](CCN)NC(=O)[C@H](CCC(N)=O)NC(=O)[C@H](Cc2cncnc2)NC(=O)C(C)(C)NC(=O)[C@H](Cc2c[nH]c3ccccc23)NC(=O)[C@H](CCC(=O)O)NC(=O)C(C)(C)NC1=O [Example 149] (cyclo([Bip(4'-COOH)][4Pal][Phe(4-COOH)]G[Pro(cis-4-F)][1Nal(3S-Me)][Aib]EW[Aib][Ala(pyrimidin-5-yl)]Q[Dab]G[dPro(4R-Bzl(4-F))])),10.62
11,"C[C@@H](c1c[nH]c2cccc(F)c12)[C@@H]1NC(=O)[C@@H]2C[C@H](F)CN2C(=O)CNC(=O)[C@H](Cc2ccc(C(=O)O)cc2)NC(=O)[C@H](Cc2ccncc2)NC(=O)[C@H](Cc2ccc(-c3ccc(C(=O)O)cc3)cc2)NC(=O)[C@H]2[C@@H](Cc3ccc(Br)cc3)CCN2C(=O)CNC(=O)[C@H](CN)NC(=O)[C@H](CCC(N)=O)NC(=O)[C@H](Cc2cncnc2)NC(=O)C(C)(C)NC(=O)[C@H](Cc2c[nH]c3ccccc23)NC(=O)[C@H](CCC(=O)O)NC(=O)C(C)(C)NC1=O [Example 150] (cyclo([Bip(4'-COOH)][4Pal][Phe(4-COOH)]G[Pro(cis-4-F)][Trp(βS-Me,4-F)][Aib]EW[Aib][Ala(pyrimidin-5-yl)]Q[Dap]G[dPro(3S-(4-Br-benzyl))]))",10.72
12,"C[C@@H](c1c[nH]c2cccc(F)c12)[C@@H]1NC(=O)[C@@H]2C[C@H](F)CN2C(=O)CNC(=O)[C@H](Cc2ccc(C(=O)O)cc2)NC(=O)[C@H](Cc2ccncc2)NC(=O)[C@H](Cc2ccc(-c3ccc(C(=O)O)cc3)cc2)NC(=O)[C@H]2[C@@H](Cc3ccc(Br)cc3)CCN2C(=O)CNC(=O)[C@H](CCCN)NC(=O)[C@H](CCC(N)=O)NC(=O)[C@H](Cc2cncnc2)NC(=O)C(C)(C)NC(=O)[C@H](Cc2c[nH]c3ccccc23)NC(=O)[C@H](CCC(=O)O)NC(=O)C(C)(C)NC1=O [Example 151] (cyclo([Bip(4'-COOH)][4Pal][Phe(4-COOH)]G[Pro(cis-4-F)][Trp(βS-Me,4-F)][Aib]EW[Aib][Ala(pyrimidin-5-yl)]Q[Orn]G[dPro(3S-(4-Br-benzyl))]))",10.66
